# Measurements published in patent US20210038515A1 (Azurity Pharmaceuticals, Inc., priority 2014, published 2021).
# Tested on: Clostridium difficile
# Assay: Agar dilution MIC of vancomycin preparations (Sigma, Cutis), diluent, Na benzoate and Na citrate
# Format: cell-based
# Details: for MIC, AV (average): average of triplicate; for MIC, VAN-1: replicate 1; for MIC, VAN-2: replicate 2; for MIC, VAN-3: replicate 3
# Protocol: Introduction: The purpose of the study was to compare the MICs obtained with the formulation of vancomycin HCL of the invention (Cutis) to formulations obtained using a vancomycin HCL reference standard powder obtained from Sigma. The Example also involves the analysis of a solution or diluent to determine if it has antimicrobial activity at the concentrations present in the agar dilution test.
# The C. difficile were tested by agar dilution according to the procedures in the Clinical and Laboratory Standards Institute. 2012. Methods for antimicrobial susceptibility testing of anaerobic bacteria; approved standard-seventh edition.
# Other anaerobic organisms included clinical isolates of Bifidobacterium adolescentis and Bacteroides fragilis. Clostridium difficile ATCC 700057 was included as a quality control strain.
# The C. difficile isolates were recovered from patients with CDI during the past two years and stored at −70° C. in 20% skim milk. Ribotyping was performed by another reference laboratory. The strains were taken from the freezer and subcultured at least twice to ensure purity and good growth.
# On the day of testing, they were suspended in Brucella broth to the turbidity of the 0.5 McFarland standard for testing.
# Stock solution of the Sigma vancomycin was prepared in water and stored at −70° C. On the day of testing, it was thawed and further diluted in water to obtain the desired range of 16-0.125 μg/ml. The Cutis vancomycin (25 mg/ml) was reconstituted on the day of testing and further diluted for a final range of 16-0.125 μg/ml in the test. The antimicrobials were added to molten Brucella agar supplemented with vitamin K and hemin to prepare the plates. Drug-free growth controls were included for testing before and after each set of plates. All testing was done in triplicate.
# The organisms were pipetted into the wells of the Steers replicator head and applied to the plates with the multi-pronged replicator. The final concentration of organisms was ˜10^5 CFU/spot.
# The plates were incubated in the anaerobic chamber incubator for 44 h and examined for growth.
# The Cutis diluent comprises: water, about 0.12% (w/v) citric acid (anhydrous), 0.2% (w/v) sucralose, about 0.05% (w/v) artificial grape flavor, 0.1% (w/v) sodium benzoate, about 0.0002% (w/v) D&C Yellow No. 10 and about 0.000038% (w/v) FD&C Red No. 40.
structure (smiles),measurement,setting,value
CN[C@H](CC(C)C)C(=O)N[C@H]1C(=O)N[C@@H](CC(N)=O)C(=O)N[C@H]2C(=O)N[C@H]3C(=O)N[C@H](C(=O)N[C@H](C(=O)O)c4cc(O)cc(O)c4-c4cc3ccc4O)[C@H](O)c3ccc(c(Cl)c3)Oc3cc2cc(c3O[C@@H]2O[C@H](CO)[C@@H](O)[C@H](O)[C@H]2O[C@H]2C[C@](C)(N)[C@H](O)[C@H](C)O2)Oc2ccc(cc2Cl)[C@H]1O.Cl [Sigma],"MIC, AV (average)","RMA 24690, ribotype 027",5.3 mg/L
same,"MIC, VAN-1","RMA 24690, ribotype 027",4 mg/L
same,"MIC, VAN-2","RMA 24690, ribotype 027",4 mg/L
same,"MIC, VAN-3","RMA 24690, ribotype 027",8 mg/L
same,"MIC, AV (average)","RMA 26381, ribotype 017",1.7 mg/L
same,"MIC, VAN-1","RMA 26381, ribotype 017",2 mg/L
same,"MIC, VAN-2","RMA 26381, ribotype 017",2 mg/L
same,"MIC, VAN-3","RMA 26381, ribotype 017",1 mg/L
same,"MIC, AV (average)","RMA 26442, ribotype 017",1 mg/L
same,"MIC, VAN-1","RMA 26442, ribotype 017",1 mg/L
same,"MIC, VAN-2","RMA 26442, ribotype 017",1 mg/L
same,"MIC, VAN-3","RMA 26442, ribotype 017",1 mg/L
same,"MIC, AV (average)","RMA 26443, ribotype 027",4 mg/L
same,"MIC, VAN-1","RMA 26443, ribotype 027",4 mg/L
same,"MIC, VAN-2","RMA 26443, ribotype 027",4 mg/L
same,"MIC, VAN-3","RMA 26443, ribotype 027",4 mg/L
same,"MIC, AV (average)","RMA 26445, ribotype 017",2 mg/L
same,"MIC, VAN-1","RMA 26445, ribotype 017",2 mg/L
same,"MIC, VAN-2","RMA 26445, ribotype 017",2 mg/L
same,"MIC, VAN-3","RMA 26445, ribotype 017",2 mg/L
same,"MIC, AV (average)","RMA 26446, ribotype 027",1 mg/L
same,"MIC, VAN-1","RMA 26446, ribotype 027",1 mg/L
same,"MIC, VAN-2","RMA 26446, ribotype 027",1 mg/L
same,"MIC, VAN-3","RMA 26446, ribotype 027",1 mg/L
same,"MIC, AV (average)","RMA 26447, ribotype 001",2 mg/L
same,"MIC, VAN-1","RMA 26447, ribotype 001",2 mg/L
same,"MIC, VAN-2","RMA 26447, ribotype 001",2 mg/L
same,"MIC, VAN-3","RMA 26447, ribotype 001",2 mg/L
same,"MIC, AV (average)","RMA 26451, ribotype 001",1.7 mg/L
same,"MIC, VAN-1","RMA 26451, ribotype 001",2 mg/L
same,"MIC, VAN-2","RMA 26451, ribotype 001",2 mg/L
same,"MIC, VAN-3","RMA 26451, ribotype 001",1 mg/L
same,"MIC, AV (average)","RMA 26455, ribotype 027",1 mg/L
same,"MIC, VAN-1","RMA 26455, ribotype 027",1 mg/L
same,"MIC, VAN-2","RMA 26455, ribotype 027",1 mg/L
same,"MIC, VAN-3","RMA 26455, ribotype 027",1 mg/L
same,"MIC, AV (average)","RMA 26457, ribotype 027",1 mg/L
same,"MIC, VAN-1","RMA 26457, ribotype 027",1 mg/L
same,"MIC, VAN-2","RMA 26457, ribotype 027",1 mg/L
same,"MIC, VAN-3","RMA 26457, ribotype 027",1 mg/L
same,"MIC, AV (average)","RMA 26461, ribotype 106",1.3 mg/L
same,"MIC, VAN-1","RMA 26461, ribotype 106",1 mg/L
same,"MIC, VAN-2","RMA 26461, ribotype 106",2 mg/L
same,"MIC, VAN-3","RMA 26461, ribotype 106",1 mg/L
same,"MIC, AV (average)","RMA 26463, ribotype 002",1.3 mg/L
same,"MIC, VAN-1","RMA 26463, ribotype 002",1 mg/L
same,"MIC, VAN-2","RMA 26463, ribotype 002",2 mg/L
same,"MIC, VAN-3","RMA 26463, ribotype 002",1 mg/L
same,"MIC, AV (average)","RMA 26466, ribotype 020",1.7 mg/L
same,"MIC, VAN-1","RMA 26466, ribotype 020",2 mg/L
same,"MIC, VAN-2","RMA 26466, ribotype 020",2 mg/L
same,"MIC, VAN-3","RMA 26466, ribotype 020",1 mg/L
same,"MIC, AV (average)","RMA 26467, ribotype 002",1.3 mg/L
same,"MIC, VAN-1","RMA 26467, ribotype 002",1 mg/L
same,"MIC, VAN-2","RMA 26467, ribotype 002",2 mg/L
same,"MIC, VAN-3","RMA 26467, ribotype 002",1 mg/L
same,"MIC, AV (average)","RMA 26471, ribotype 001",2 mg/L
same,"MIC, VAN-1","RMA 26471, ribotype 001",2 mg/L
same,"MIC, VAN-2","RMA 26471, ribotype 001",2 mg/L
same,"MIC, VAN-3","RMA 26471, ribotype 001",2 mg/L
same,"MIC, AV (average)","RMA 26472, ribotype 014",1 mg/L
same,"MIC, VAN-1","RMA 26472, ribotype 014",1 mg/L
same,"MIC, VAN-2","RMA 26472, ribotype 014",1 mg/L
same,"MIC, VAN-3","RMA 26472, ribotype 014",1 mg/L
same,"MIC, AV (average)","RMA 26480, ribotype 106",1 mg/L
same,"MIC, VAN-1","RMA 26480, ribotype 106",1 mg/L
same,"MIC, VAN-2","RMA 26480, ribotype 106",1 mg/L
same,"MIC, VAN-3","RMA 26480, ribotype 106",1 mg/L
same,"MIC, AV (average)","RMA 26484, ribotype 106",1 mg/L
same,"MIC, VAN-1","RMA 26484, ribotype 106",1 mg/L
same,"MIC, VAN-2","RMA 26484, ribotype 106",1 mg/L
same,"MIC, VAN-3","RMA 26484, ribotype 106",1 mg/L
same,"MIC, AV (average)","RMA 26485, ribotype 078",1.3 mg/L
same,"MIC, VAN-1","RMA 26485, ribotype 078",2 mg/L
same,"MIC, VAN-2","RMA 26485, ribotype 078",1 mg/L
same,"MIC, VAN-3","RMA 26485, ribotype 078",1 mg/L
same,"MIC, AV (average)","RMA 26489, ribotype 176",1 mg/L
same,"MIC, VAN-1","RMA 26489, ribotype 176",1 mg/L
same,"MIC, VAN-2","RMA 26489, ribotype 176",1 mg/L
same,"MIC, VAN-3","RMA 26489, ribotype 176",1 mg/L
same,"MIC, AV (average)","RMA 26494, ribotype 126",1.3 mg/L
same,"MIC, VAN-1","RMA 26494, ribotype 126",1 mg/L
same,"MIC, VAN-2","RMA 26494, ribotype 126",2 mg/L
same,"MIC, VAN-3","RMA 26494, ribotype 126",1 mg/L
same,"MIC, AV (average)","RMA 26500, ribotype 014",1 mg/L
same,"MIC, VAN-1","RMA 26500, ribotype 014",1 mg/L
same,"MIC, VAN-2","RMA 26500, ribotype 014",1 mg/L
same,"MIC, VAN-3","RMA 26500, ribotype 014",1 mg/L
same,"MIC, AV (average)","RMA 26503, ribotype 014",1 mg/L
same,"MIC, VAN-1","RMA 26503, ribotype 014",1 mg/L
same,"MIC, VAN-2","RMA 26503, ribotype 014",1 mg/L
same,"MIC, VAN-3","RMA 26503, ribotype 014",1 mg/L
same,"MIC, AV (average)","RMA 26543, ribotype 078",1 mg/L
same,"MIC, VAN-1","RMA 26543, ribotype 078",1 mg/L
same,"MIC, VAN-2","RMA 26543, ribotype 078",1 mg/L
same,"MIC, VAN-3","RMA 26543, ribotype 078",1 mg/L
same,"MIC, AV (average)","RMA 26544, ribotype 078",2 mg/L
same,"MIC, VAN-1","RMA 26544, ribotype 078",2 mg/L
same,"MIC, VAN-2","RMA 26544, ribotype 078",2 mg/L
same,"MIC, VAN-3","RMA 26544, ribotype 078",2 mg/L
same,"MIC, AV (average)","RMA 26563, ribotype 018",1 mg/L
same,"MIC, VAN-1","RMA 26563, ribotype 018",1 mg/L
same,"MIC, VAN-2","RMA 26563, ribotype 018",1 mg/L
same,"MIC, VAN-3","RMA 26563, ribotype 018",1 mg/L
same,"MIC, AV (average)","RMA 26572, ribotype 017",1.7 mg/L
same,"MIC, VAN-1","RMA 26572, ribotype 017",2 mg/L
same,"MIC, VAN-2","RMA 26572, ribotype 017",2 mg/L
same,"MIC, VAN-3","RMA 26572, ribotype 017",1 mg/L
